Measurements reported in US6342504B1, “Aromatic heterocyclic derivatives as enzyme inhibitors” (priority 1994, dated 2002).
Where a name gives a salt, the structure may show the parent alone. Read-outs that look alike come from different tables or passages of the source.

Experiments:
human alpha thrombin = target: T1, human alpha thrombin (Homo sapiens, UniProt P00734); experiment: Thrombin (fIIa) IC50 assay, chromogenic substrate Pefachrome t-PA; format: biochemical
T1 construct: Purified human alpha-thrombin; purchased Enzyme Research Laboratories, Inc
Procedure: (§1) The ability of compounds of the present invention to act as a selective inhibitor of thrombin catalytic activity was assessed by determining the concentration of compound which inhibited the activity of this enzyme by 50%, (IC50), and comparing this value to that determined for all or some of the following related serine proteases: recombinant tissue plasminogen activator (rt-PA), plasmin, activated protein C, chymotrypsin, factor Xa and trypsin.
(§2) The buffer used for all assays was HBSA (10 mM HEPES, pH 7.5, 150 mM sodium chloride, 0.1% bovine serum albumin).
(§3) The assay for IC50 determinations was conducted by combining in appropriate wells of a Corning microtiter plate, 50 microliters of HBSA, 50 microliters of the test compound at a specified concentration (covering a broad concentration range) diluted in HBSA (or HBSA alone for VO (uninhibited velocity) measurement), and 50 microliters of the enzyme diluted in HBSA. Following a 30 minute incubation at ambient temperature, 50 microliters of the substrate at the concentrations specified below were added to the wells, yielding a final total volume of 200 microliters. The initial velocity of chromogenic substrate hydrolysis was measured by the change in absorbance at 405 nm using a Thermo Max® Kinetic Microplate Reader over a 5 minute period in which less than 5% of the added substrate was utilized. The concentration of added inhibitor which caused a 50% decrease in the initial rate of hydrolysis was defined as the IC50 value.
Enzyme activity was determined using the chromogenic substrate, Pefachrome t-PA (CH3SO2-D-hexahydrotyrosine-glycyl-L-Arginine-p-nitroaniline, obtained from Pentapharm Ltd.). The substrate was reconstituted in deionized water prior to use. Purified human a-thrombin was obtained from Enzyme Research Laboratories, Inc. The buffer used for all assays was HBSA (10 mM HEPES, pH 7.5, 150 mM sodium chloride, 0.1% bovine serum albumin).
IC50 determinations were conducted where HBSA ([…]), a-thrombin (50 μl) and inhibitor (50 μl) (covering a broad concentration range), were combined in appropriate wells and incubated for 30 minutes at room temperature prior to the addition of substrate Pefachrome-t-PA (50 μl). The initial velocity of Pefachrome t-PA hydrolysis was measured by the change in absorbance at 405 nm using a Thermo Max® Kinetic Microplate Reader over a 5 minute period in which less than 5% of the added substrate was utilized. The concentration of added inhibitor which caused a 50% decrease in the initial rate of hydrolysis was defined as the IC50 value.

human plasmin = human plasmin (Homo sapiens, UniProt P00747); experiment: biochemical; details: 30 minute incubation
Procedure: as §1, §2, §3
Plasmin catalytic activity was determined using the chromogenic substrate, S-2366 [L-pyroglutomyl-L-prolyl-L-arginine-p-nitroaniline hydrochloride], which was obtained from Pharmacia-Upjohn. The substrate was made up in deionized water followed by dilution in HBSA prior to the assay in which the final concentration was 300 micromolar (about 2.5-times Km). Purified human plasmin was obtained from Enzyme Research Laboratories, Inc. The enzyme was diluted into HBSA prior to assay in which the final concentration was […].

Human rt-PA (Activase) = target: T2, Human rt-PA (Activase) (Homo sapiens, UniProt P00750); experiment: biochemical; details: 30 minute incubation
T2 construct: purchased Genentech Inc
Procedure: as §1, §2, §3
Recombinant Tissue Plasminogen Activator (rt-PA) Assay
rt-PA catalytic activity was determined using the substrate, Pefachrome t-PA (CH3SO2-D-hexahydrotyrosine-glycyl-L-arginine-p-nitroaniline, obtained from Pentapharm Ltd.). The substrate was made up in deionized water followed by dilution in HBSA prior to the assay in which the final concentration was 500 micromolar (about 3-times Km). Human rt-PA (Activase®) was obtained from Genentech Inc. The enzyme was reconstituted in deionized water and diluted into HBSA prior to the assay in which the final concentration was 1.0 nM.

human aPC = target: T3, human aPC (Homo sapiens, UniProt P04070); experiment: biochemical; details: 30 minute incubation
T3 construct: purchased Hematologic Technologies, Inc
Procedure: as §2
Following a 30 minute incubation at ambient temperature, 50 microliters of the substrate at the concentrations specified below were added to the wells, yielding a final total volume of 200 microliters.
Activated Protein C (aPC) Assay
aPC catalytic activity was determined using the chromogenic substrate, Pefachrome PC (delta-carbobenzloxy-D-lysine-L-prolyl-L-arginine-p-nitroaniline dihydrochloride), obtained from Pentapharm Ltd.). […] Purified human aPC was obtained from Hematologic Technologies, Inc. The enzyme was diluted into HBSA prior to assay in which the final concentration was 1.0 nM.

[1] = read-out: Plasmin IC50 (Table 3B)
[2] = 30 minute incubation, read-out: Thrombin IC50 (Table 3C)
[3] = read-out: rt-PA (IC50) (Table 3A)
[4] = read-out: Plasmin (IC50) (Table 3A)
[5] = read-out: aPC (IC50) (Table 3A)
[6] = read-out: IC50 Plasmin (Table 2)

T2 sequence (P00750 36-562): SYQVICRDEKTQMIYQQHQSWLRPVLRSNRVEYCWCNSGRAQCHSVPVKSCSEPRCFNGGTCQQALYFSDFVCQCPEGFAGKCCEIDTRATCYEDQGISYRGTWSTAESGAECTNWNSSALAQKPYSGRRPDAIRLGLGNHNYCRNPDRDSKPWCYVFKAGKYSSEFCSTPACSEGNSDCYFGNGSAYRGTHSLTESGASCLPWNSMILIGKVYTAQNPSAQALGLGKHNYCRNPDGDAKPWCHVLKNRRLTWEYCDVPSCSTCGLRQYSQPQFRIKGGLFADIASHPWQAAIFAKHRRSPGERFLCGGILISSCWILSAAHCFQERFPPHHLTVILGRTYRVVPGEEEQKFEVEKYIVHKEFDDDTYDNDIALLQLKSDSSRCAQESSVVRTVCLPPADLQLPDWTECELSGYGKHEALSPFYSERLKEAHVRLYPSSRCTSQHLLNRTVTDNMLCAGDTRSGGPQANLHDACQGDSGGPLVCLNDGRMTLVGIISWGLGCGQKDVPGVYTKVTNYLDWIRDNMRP
Sequence of human plasmin (P00747 97-580): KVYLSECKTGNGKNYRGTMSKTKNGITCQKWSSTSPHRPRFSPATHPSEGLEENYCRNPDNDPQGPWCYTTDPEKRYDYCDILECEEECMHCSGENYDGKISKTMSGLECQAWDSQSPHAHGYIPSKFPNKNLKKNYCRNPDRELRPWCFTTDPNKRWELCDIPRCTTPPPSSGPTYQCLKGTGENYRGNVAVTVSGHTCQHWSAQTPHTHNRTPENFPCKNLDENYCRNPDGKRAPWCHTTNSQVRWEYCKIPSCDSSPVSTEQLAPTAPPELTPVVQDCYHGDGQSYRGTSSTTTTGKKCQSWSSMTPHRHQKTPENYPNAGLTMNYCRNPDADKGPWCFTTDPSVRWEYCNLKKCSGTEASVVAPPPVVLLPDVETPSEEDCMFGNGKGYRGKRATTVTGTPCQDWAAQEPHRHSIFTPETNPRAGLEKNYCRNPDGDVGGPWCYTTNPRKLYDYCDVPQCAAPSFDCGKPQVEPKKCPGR
Sequence of human plasmin (P00747 581-810): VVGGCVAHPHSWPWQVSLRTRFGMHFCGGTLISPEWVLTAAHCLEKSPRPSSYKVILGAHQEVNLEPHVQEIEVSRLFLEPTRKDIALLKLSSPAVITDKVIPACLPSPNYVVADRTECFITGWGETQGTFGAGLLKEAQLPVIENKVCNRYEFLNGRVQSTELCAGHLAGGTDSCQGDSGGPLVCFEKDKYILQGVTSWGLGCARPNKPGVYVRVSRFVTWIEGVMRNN
T3 sequence (P04070 43-197): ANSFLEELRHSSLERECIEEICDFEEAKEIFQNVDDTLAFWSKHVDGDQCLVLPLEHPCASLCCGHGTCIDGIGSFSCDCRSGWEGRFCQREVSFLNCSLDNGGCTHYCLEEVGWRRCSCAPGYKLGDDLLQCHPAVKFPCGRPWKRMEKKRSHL
T3 sequence (P04070 212-461): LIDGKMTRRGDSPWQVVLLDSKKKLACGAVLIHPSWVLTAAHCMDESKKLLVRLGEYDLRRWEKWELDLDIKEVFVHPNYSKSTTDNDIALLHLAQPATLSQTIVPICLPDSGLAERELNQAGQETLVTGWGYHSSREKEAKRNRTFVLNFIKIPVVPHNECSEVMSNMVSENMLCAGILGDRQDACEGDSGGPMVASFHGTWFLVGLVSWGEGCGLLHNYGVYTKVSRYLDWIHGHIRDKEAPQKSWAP

## N=C(N)NCCC[C@@H](C=O)NC(=O)Cn1cccc(NS(=O)(=O)c2ccccc2F)c1=O [Compound 121A]
Human alpha thrombin
  IC50: 14.7 nM
Human plasmin; [1]
  IC50: > 2500 nM

## [5-(2,3-dihydrobenzofuran)sulfonylamino-6-methyl-2-oxo-1,2-dihydro-pyridyl]acetyl-L-argininal [Compound 153C]
Human alpha thrombin; [2]
  IC50: 0.266 nM

## COc1cccc(S(=O)(=O)Nc2ccc(=O)n(CC(=O)N[C@H](C=O)CCCNC(=N)N)c2)c1OC [Compound 152B, [5-(2,3-dimethoxy-benzene)sulfonylamino-2-oxo-1,2-dihydropyridyl]acetyl-L-argininal]
Human alpha thrombin; [2]
  IC50: 14.9 nM

## Cc1cccc(S(=O)(=O)Nc2cccn(CC(=O)N[C@H](C=O)CCCNC(=N)N)c2=O)c1 [Compound 3-Me-phenyl, [3-(3-methyiphenyl)sulfonylamino-2-oxo-1,2-dihydro-pyridyl]acetyl-L-argininal]
Human alpha thrombin
  IC50: 0.85 nM
Human rt-PA (Activase); [3]
  IC50: > 2500 nM
Human plasmin; [4]
  IC50: > 2500 nM
Human aPC; [5]
  IC50: > 2500 nM

## Cc1ccc(NS(=O)(=O)Cc2ccccc2)c(=O)n1CC(=O)N[C@H](C=O)CCCNC(=N)N [Compound C, (3-benzylsulfonylamino-6-methyl-2-oxo-1,2-dihydro-1-pyridyl)acetyl-L-argininal, trifluoroacetate salt]
Human alpha thrombin
  IC50: 0.467 nM
Human plasmin; [6]
  IC50: > 2500 nM

## N=C(N)NCCC[C@@H](C=O)NC(=O)Cn1cccc(NS(=O)(=O)c2cccc(C(F)(F)F)c2)c1=O [Compound 3-CF3-phenyl, [3-(3-trifluoromethylphenyl)sulfonylamino-2-oxo-1,2-dihydro-pyridyl]acetyl-L-argininal]
Human alpha thrombin
  IC50: 3.1 nM
Human rt-PA (Activase); [3]
  IC50: > 2500 nM
Human plasmin; [4]
  IC50: > 2500 nM
Human aPC; [5]
  IC50: > 2500 nM

## [5-(1,3-benzodioxole)sulfonylalmino-6-methyl-2-oxo-1,2-dihydro-pyridyl]acetyl-L-argininal [Compound 153D]
Human alpha thrombin; [2]
  IC50: 0.31 nM

## N=C(N)NCCC[C@@H](C=O)NC(=O)Cn1cccc(NS(=O)(=O)c2ccccc2C(F)(F)F)c1=O [Compound 2-CF3-phenyl]
Human alpha thrombin
  IC50: 5.6 nM
Human rt-PA (Activase); [3]
  IC50: > 2500 nM
Human plasmin; [4]
  IC50: > 2500 nM
Human aPC; [5]
  IC50: > 2500 nM

## N=C(N)NCCC[C@@H](C=O)NC(=O)Cn1cccc(NS(=O)(=O)Cc2cc(F)ccc2F)c1=O [Compound 121P, [3-(2,5-difluorobenzyl)sulfonylamino-2-oxo-1,2-dihydropyridyl]acetyl-L-argininal]
Human alpha thrombin
  IC50: 1.73 nM
Human rt-PA (Activase); read-out: rtPA IC50 (Table 3B)
  IC50: > 2500 nM
Human plasmin; [1]
  IC50: > 2500 nM
Human aPC
  aPC IC50 (Table 3B): inactive

## N=C(N)NCCC[C@@H](C=O)NC(=O)Cn1cccc(NS(=O)(=O)Cc2cccc(F)c2)c1=O [Compound 121K]
Human alpha thrombin
  IC50: 0.882 nM
Human rt-PA (Activase)
  rtPA IC50 (Table 3B): inactive
Human plasmin; [1]
  IC50: > 2500 nM
Human aPC
  aPC IC50 (Table 3B): inactive

## COc1ccccc1S(=O)(=O)Nc1cccn(CC(=O)N[C@H](C=O)CCCNC(=N)N)c1=O [Compound 2-OMe-phenyl, [3-(2-methoxylphenyl)sulfonylamino-2-oxo-1,2-dihydropyridyl]acetyl-L-argininal]
Human alpha thrombin
  IC50: 1.98 nM
Human rt-PA (Activase); [3]
  IC50: > 2500 nM
Human plasmin; [4]
  IC50: > 2500 nM
Human aPC; [5]
  IC50: > 2500 nM

## [5-(2,3-dioxaspirocyclohexyl)-sulfonylamino-2-oxo-1,2-dihydropyridyl]acetyl-L-argininal [Compound 152C]
Human alpha thrombin; [2]
  IC50: 6.01 nM

## Cc1ccc(F)cc1S(=O)(=O)Nc1cccn(CC(=O)N[C@H](C=O)CCCNC(=N)N)c1=O [2-Me, 5-F-phenyl, [3-(2-methyl-5-fluorophenyl)sulfonylamino-2-oxo-1,2-dihydro-pyridyl]acetyl-L-argininal]
Human alpha thrombin
  IC50: 1.97 nM
Human rt-PA (Activase); [3]
  IC50: > 2500 nM
Human plasmin; [4]
  IC50: > 2500 nM
Human aPC; [5]
  IC50: > 2500 nM

## [2,3-methylenedioxy-benzene)sulfonylamino-2-oxo-1,2-dihydropyridyl]acetyl-L-argininal [Compound 152D]
Human alpha thrombin; [2]
  IC50: 0.794 nM

## N=C(N)NCCC[C@@H](C=O)NC(=O)Cn1cccc(NS(=O)(=O)c2ccccc2N)c1=O [Compound 2-NH2phenyl, [3-(2-aminophenyl)sulfonylamino-2-oxo-1,2-dihydropyridyl]acetyl-L-argininal]
Human alpha thrombin
  IC50: 3.7 nM
Human rt-PA (Activase); [3]
  IC50: > 2500 nM
Human plasmin; [4]
  IC50: > 2500 nM
Human aPC; [5]
  IC50: > 2500 nM

## [5-(1,4-benzodioxan)sulfonylamino-6-methyl-2-oxo-1,2-dihydro-pyridyl]acetyl-L-argininal [Compound 153B]
Human alpha thrombin; [2]
  IC50: 0.274 nM

## Cc1ncc(NS(=O)(=O)Cc2ccccc2)c(=O)n1CC(=O)N[C@H](C=O)CCCNC(=N)N [Compound D, (5-benzylsulfonylamino-2-methyl-6-oxo-1,6-dihydro-1-pyrimidinyl)acetyl-L-argininal, trifluoroacetate salt]
Human alpha thrombin
  IC50: 2.32 nM
Human rt-PA (Activase); 1.0 nM enzyme, read-out: IC50 rt-PA (Table 2)
  IC50: > 2500 nM
Human plasmin; [6]
  IC50: > 2500 nM
Human aPC; 1.0 nM enzyme, read-out: IC50 aPC (Table 2)
  IC50: > 2500 nM

## COc1ccc(OC)c(S(=O)(=O)Nc2cccn(CC(=O)N[C@H](C=O)CCCNC(=N)N)c2=O)c1 [Compound 121E, [3-(2,5-dimethoxyphenyl)sulfonylamino-2-oxo-1,2-dihydropyridyl]acetyl-L-argininal]
Human alpha thrombin
  IC50: 0.597 nM
Human rt-PA (Activase)
  rtPA IC50 (Table 3B): inactive
Human plasmin; [1]
  IC50: > 2500 nM
Human aPC
  aPC IC50 (Table 3B): inactive

## Cc1ccc(F)cc1S(=O)(=O)Nc1ccc(C)n(CC(=O)N[C@H](C=O)CCCNC(=N)N)c1=O [Compound 126B, [3-(5-fluoro-2-methylphenyl)sulfonylamino-6-methyl-2-oxo-1,2-dihydro-pyridyl]acetyl-L-argininal]
Human alpha thrombin
  IC50: 0.882 nM
Human rt-PA (Activase)
  rtPA IC50 (Table 3B): inactive
Human plasmin; [1]
  IC50: > 2500 nM
Human aPC
  aPC IC50 (Table 3B): inactive

## N=C(N)NCCC[C@@H](C=O)NC(=O)Cn1cccc(NS(=O)(=O)Cc2ccccc2F)c1=O [Compound 121J]
Human alpha thrombin
  IC50: 0.763 nM
Human rt-PA (Activase); read-out: rtPA IC50 (Table 3B)
  IC50: > 2500 nM
Human plasmin; [1]
  IC50: > 2500 nM
Human aPC
  aPC IC50 (Table 3B): inactive

## COc1ccc(OC)c(S(=O)(=O)Nc2ccc(C)n(CC(=O)N[C@H](C=O)CCCNC(=N)N)c2=O)c1 [Compound 126C, 3-[(2,5-dimethoxyphenyl)sulfonylamino-6-methyl-2-oxo-1,2-dihydro-pyridyl]acetyl-L-argininal]
Human alpha thrombin
  IC50: 0.519 nM
Human rt-PA (Activase)
  rtPA IC50 (Table 3B): inactive
Human plasmin; [1]
  IC50: > 2500 nM
Human aPC
  aPC IC50 (Table 3B): inactive

## N=C(N)NCCC[C@@H](C=O)NC(=O)Cn1cccc(NS(=O)(=O)CCc2ccccc2)c1=O [Compound 121G, [3-(phenethyl)sulfonylamino-2-oxo-1,2-dihydropyridyl]acetyl-L-argininal]
Human alpha thrombin
  IC50: 46.9 nM
Human plasmin; [1]
  IC50: ~2500 nM

## COC(=O)c1ccccc1CS(=O)(=O)Nc1cccn(CC(=O)N[C@H](C=O)CCCNC(=N)N)c1=O [Compound 121M]
Human alpha thrombin
  IC50: 0.623 nM
Human plasmin; [1]
  IC50: > 2500 nM

## [5-(1,3-benzodioxole)sulfonylamino-2-oxo-1,2-dihydropyridyl]acetyl-L-argininal [Compound 152A]
Human alpha thrombin; [2]
  IC50: 0.807 nM
